Laboratory results from article PMC10536132, “Arginine Gemini-Based Surfactants for Antimicrobial and Antibiofilm Applications: Molecular Interactions, Skin-Related Anti-Enzymatic Activity and Cytotoxicity” (Molecules, 2023).
Where two headings read alike, the source gives them in different places. Marks after values point to notes of the source that are not given here.

Legend:
[1] = Apparent pKa by direct titration with NaOH; format: physicochemical; conditions: aqueous solution, concentration above the minimum aggregation concentration; pH at semi-equivalence point
Protocol: In order to determine the ionization state of these gemini surfactants at the pH used to investigate their biological properties, the apparent acid pKa was determined for each of them. The pKap value has been determined by means of a direct titration with NaOH of an aqueous solution of each compound. The surfactant concentrations used were in all cases higher than the minimum aggregation concentration, thus avoiding possible deviations in the pK value due to the monomer–aggregate balance. The pKap values can be estimated from the pH at the semi-equivalence point that is reached when the molar ratio of protonated and non-protonated species is 1:1. In these conditions, we have that the pH = pKa.
The pKa value of each compound has been determined by means of a direct titration with NaOH of an aqueous solution of each compound. The pH was measured using the pH electrode Thermo Electron Corporation ORION 8103SC and the temperature was controlled by a thermostatic bath, Heto CBN 8-30. The pKa values can be estimated from the pH at the semi-equivalence point, which contains a 1:1 molar ratio of protonated and non-protonated species; at this point, pH = pKap.

[2] = biological target: porcine pancreatic elastase (Sus scrofa, UniProt P00772); experiment: Elastase inhibitory assay; format: biochemical; conditions: 40 µL of 1000 µg/mL stock; EGCG 250 μM
Sequence of porcine pancreatic elastase (P00772 27-266): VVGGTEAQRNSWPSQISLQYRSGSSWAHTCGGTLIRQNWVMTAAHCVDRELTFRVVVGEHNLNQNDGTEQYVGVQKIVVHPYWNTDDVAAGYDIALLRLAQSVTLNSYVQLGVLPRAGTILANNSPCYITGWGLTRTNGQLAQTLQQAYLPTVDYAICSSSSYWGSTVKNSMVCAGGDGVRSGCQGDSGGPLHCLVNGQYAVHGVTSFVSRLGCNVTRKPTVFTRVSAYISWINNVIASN
Protocol: The elastase inhibition was tested according to the method described by […] et al.. First, a stock solution of each surfactant at 1000 μg/mL was prepared in sterile ultrapure water. A stock solution of porcine pancreatic elastase at 3.33 mg/mL in sterile ultrapure water was also prepared. The substrate […] (Ala) 3-p-nitroanilide was dissolved in 0.2 mM Tris-HCl buffer solution (pH 8.0). The samples (40 μL) were then diluted and incubated together with the enzyme for 15 min prior to the substrate addition. Negative control was sterile ultrapure water, while EGCG (250 μM or 0.114 mg/mL) was used as the positive control. The absorbance at λ = 410 nm was measured immediately after the substrate addition and continuously during the next 2 h using an Elx800 Microplate Reader (Biotek®). […] The anti-elastase activity (in %), determined in triplicate, was calculated according to the following equation:(2) Elastase inhibitory activity %=A1-A2/A1×100 where A1 and A2 represent the absorbance in the absence and presence of the testing samples, respectively.

bovine hyaluronidase = experiment: Hyaluronidase inhibitory activity; format: biochemical; conditions: negative inhibition values
Protocol: The hyaluronidase inhibitory activity was performed according to the method used by Altinyay et al. with some modifications. Briefly, a work solution containing bovine hyaluronidase (7900 units/mL) in 0.1 M acetate buffer (pH 3.6) was prepared. Fifty microliters of the work solution were mixed 1:1 with the surfactants’ solution in 5% DMSO. For the negative control, 50 μL of 5% DMSO was used, while EGCG was used as positive control. After 20 min of incubation at 37 °C, 50 μL of calcium chloride (12.5 mM) was added to the mixture and again incubated for 20 min at 37 °C. At that point, 250 μL sodium hyaluronate (1.2 mg/mL) was added and incubated for 40 min at 37 °C. After incubation, the mixture was treated with 50 μL of 0.4 M NaOH and 100 μL of 0.2 M sodium borate and then incubated for 3 min in a boiling water bath. After cooling to room temperature, 1.4 mL of p-dimethylaminobenzaldehyde solution was added to the reaction mixture, being further incubated at 37 °C for 20 min. The resulting colored solution was measured at λ = 585 nm (PerkinElmer-Lambda 35, Brazil). The hyaluronidase inhibitory activity of each sample was calculated according to the following formula:(3) Hyaluronidase inhibitory activity %=A1−A2/A1×100 where A1 and A2 represent the absorbance in the absence and presence of the testing sample, respectively.

[3] = Cell viability, NRU assay; format: cell-based, human; conditions: human, HaCaT cells (immortal human keratinocytes); NRU, HaCaT, surfactant in solution at 35.6 µg/mL, 24 h; read-out: cellular viability
Protocol: (§1) The immortal human keratinocyte (HaCaT) and the squamous cell carcinoma (A431) were obtained from Celltec, University of Barcelona. The cells were grown in DMEM medium (4.5 g/L glucose) supplemented with 10% (v/v) FBS, 2 mM L-glutamine, 100 U/mL of penicillin and 100 μg/mL of streptomycin at 37 °C under 5% CO2. Cells were routinely cultured in 75 cm^2 culture flasks and were trypsinized using trypsin-EDTA when reached approximately 80% of confluence.
(§2) HaCaT cells (1 × 10^5 cells/mL) and A431 cells (5 × 10^4 cells/mL) were grown at the defined densities into the central 60 wells of a 96-well microplate. Cells were incubated for 24 h under 5% CO2 at 37 °C. The medium was then removed and the cells were incubated with the surfactants (100 μL), previously diluted 1:1 (v/v), reaching a concentration of […] in DMEM medium supplemented with 5% FBS using two different colorimetric methods for quantification, as follows.
(§3) The accumulation of the neutral red dye in the lysosomes of viable, undamaged cells constitutes the basis of the neutral red uptake (NRU) assay. After the cells were incubated for 24 h with the corresponding systems at 35.6 µg/mL, the medium was removed and the surfactants´ solutions were incubated for 3 h with the NRU dye solution (50 μg/mL) dissolved in the medium without FBS and phenol red (Lonza). Cells were then washed with sterile PBS, followed by the addition of 100 μL of a solution containing 50% ethanol absolute and 1% acetic acid in distilled water to extract the non-adhered dye. The microplates were then stirred for 5 min at 25 °C to promote the dissolution. Finally, the absorbance of the resulting solutions was measured at λ = 550 nm using a Bio-Rad 550 microplate reader (Hercules, CA, USA).

[4] = Cell viability, NRU assay; format: cell-based; conditions: human, A431 cells (squamous cell carcinoma), A431, surfactant in solution at 35.6 µg/mL, read-out: cellular viability
Protocol: as §1, §2, §3

[5] = design: method as in doi:10.1021/la981295l; conditions: cited from earlier work
[6] = design: method as in doi:10.1021/la981295l; conditions: cited from earlier work; remark: listed apart in the source
[7] = design: method as in doi:10.1021/la981295l; conditions: cited from earlier work; remark: listed apart in the source

pKap [1]: 9.4
anti-elastase activity (inhibition) [2]: 15.9%
increase of hyaluronidase enzymatic activity (bovine hyaluronidase): 29.9%
Structure (SMILES): CCCCCCCCCCCC(=O)NC(CCCNC(=N)N)C(=O)NCCCCCCCCCNC(=O)C(CCCNC(=N)N)NC(=O)CCCCCCCCCCC (stereo not drawn) [C9(LA)2, Bis (N^α-lauroyl arginine 1,3-nonane) diamide]
viability at 24 h, 35.6 µg/mL [3]: 60.7%
viability at 24 h, 35.6 µg/mL [4]: 60.7%
CMC (mM) Conductivity [5]: 0.3 * mM
CMC (mM) Fluorescence [6]: 0.3 * mM
CMC (mM) Surface Tension [7]: 0.003 * mM
γcmc ([7]; surface tension at the cmc): 34 * mN/m
